Test results as given in patent US3948925A, “Novel thiazole derivatives” (priority 1973, dated 1976).
Like-named read-outs stand apart in the source and are kept apart here.

What was measured:
Format in all cases: in vivo
[1] = tested on: Mamestra brassicae caterpillars; experiment: Insecticidal activity against Mamestra brassicae caterpillars, topical application; conditions: 10 μg per caterpillar; for mortality at 0.01 mg: Mamestra brassicae, topical, read-out: percent of mortality
Procedure: (§1) This test was effected on Mamestra brassicae caterpillars in the last larvae stage with a body of 1.5 to 2.0 cm. 1 μl of an acetone solution of the test compound was applied topically to the dorsal thorax of each caterpillar using 10 caterpillars for each dose studied and the caterpillars were kept at 25°C.

[2] = tested on: Mamestra oleracea caterpillars; experiment: Insecticidal activity against Mamestra oleracea caterpillars, topical application; conditions: for mortality at 0.001 mg / mortality at 0.01 mg: Mamestra, topical; for mortality at 0.001 mg: 1 μg; for mortality at 0.01 mg: 10 μg
[3] = tested on: Spodoptera exigua caterpillars; experiment: Insecticidal activity against Spodoptera exigua caterpillars, topical application; conditions: for mortality at 0.001 mg / mortality at 0.01 mg: Spodoptera exigua, topical; for mortality at 0.001 mg: 1 μg; for mortality at 0.01 mg: 10 μg
Procedure: as §1
(§2) The procedure of Test A was repeated with Spodoptera expigua and Chilo suppressalis caterpillars with compound A and the results are reported in Table II.

[4] = tested on: Chilo suppressalis caterpillars; experiment: Insecticidal activity against Chilo suppressalis caterpillars, topical application; conditions: for mortality at 0.001 mg / mortality at 0.01 mg: Chilo suppressalis, topical; for mortality at 0.001 mg: 1 μg; for mortality at 0.01 mg: 10 μg
Procedure: as §1, §2

Sitophilus granarius = experiment: Insecticidal activity against Sitophilus granarius, topical application to ventral thorax; conditions: 20°C; for mortality at 0.1 mg: dose 100 (μg); for mortality at 1 mg: dose 1000 (μg)
Procedure: 0.2 μl of an acetone solution of the test product was applied to the ventral thorax of each insect at concentrations of 5000 and 500 ppm with 50 insects for each test. The insects were held at 20°C and the percent of mortality was determined 24 and 48 hours and 6 days after the treatment.

Drosophila melanogaster = experiment: Insecticidal activity against Drosophila melanogaster, dried film in crystallizer (contact and vapor); conditions: for Emax at 50 µg/mL / Emax at 500 µg/mL / Emax at 5000 µg/mL: Drosophila melanogaster, read-out: % Efficacy; for Emax at 50 µg/mL: 50 mg/liter; for Emax at 500 µg/mL: 500 mg/liter; for Emax at 5000 µg/mL: 5000 mg/liter
Procedure: 2 ml of an acetone solution of the test product at concentrations of 5000, 500 and 50 ppm were placed in the bottom of a crystallizer and were then allowed to dry for 1 hour under a laboratory atmosphere. Three tests were run for each concentration and 25 to 50 drosophiles were placed in the crystallizer together with a carrot ring which acted as nutrient for the insects. The crystallizers were closed with a Petri dish cover and they were stored at 20°C. The number of living and dead insects was determined after 1,2,4 and 24 hours and the results for compound A are reported in Table IV.

Ceratitis capitata = experiment: Insecticidal activity against Ceratitis capitata flies, topical application; conditions: for mortality at 100 µg/mL / mortality at 1000 µg/mL: Ceratitis capitata; for mortality at 100 µg/mL: topical; for mortality at 1000 µg/mL: 1000 mg per liter, 1 μl topical
Procedure: This test was effected topically with acetone solutions of 1000 or 100 mg of compound A per liter and 1 μl of the solution was applied to the dorsal thorax of Ceratitis capitata flies aged 25 days (± 0.5) using 50 insects for each concentration. The number of flies still living and dead was determined after 2 and 24 hours to determine the percent of mortality.

Blatella germanica = experiment: Insecticidal activity against Blatella germanica, topical application to ventral thorax; conditions: for insecticidal activity: in vivo
Procedure: 1 μl of an acetone solution of the test product was applied to the ventral thorax of the insects with 20 insects per dose and concentrations of 2500, 1250, 625 and 312,5 mg/liter. The number of living and dead insects 24 and 48 hours and 6 days after the treatment was determined and the results were reported in Table VI.

Panagrellus silusae = experiment: Nematocidal activity against Panagrellus silusae in aqueous suspension; conditions: for mortality at 100 µg/mL / mortality at 1000 µg/mL: Panagrellus, 24 hours; for mortality at 100 µg/mL: 0.1 g/l; for mortality at 1000 µg/mL: 1 g/l; for nematocidal activity: in vivo
Procedure: (§3) About 2000 nematodes suspended in 0.5 ml of water were placed in a container of about 50 ml and 10 ml of an aqueous suspension of the test compound at a concentration of 1 or 0.1 g/liter were added thereto using 3 tests for each concentration. After homogenization of the aqueous media for 24 hours, a 1 ml sample was taken and the living and dead nematodes were counted with a Peter sheet.

[5] = tested on: Ditylenchus myceliophagus; experiment: Nematocidal activity against Ditylenchus myceliophagus in aqueous suspension; conditions: for mortality at 100 µg/mL / mortality at 1000 µg/mL: Ditylenchus myceliophagus, 24 hours; for mortality at 100 µg/mL: 0.1 g/l; for mortality at 1000 µg/mL: 1.0 g/l; for nematocidal activity: in vivo
Procedure: as §3

Tetranychus urticae eggs = experiment: Acaricidal activity, ovicide test on egg-infested bean leaves; conditions: 216 h, 9 days after treatment
Procedure: (§4) Bean leaves infested with 10 Tetranychus urticae females per leaf and coated with glue about their periphery were used in this test and the females were left to lay eggs for 24 hours and were then removed from the leaves which were egg infested and divided into 2 groups. The first group was sprayed with 0.5 ml of an aqueous solution of compound A for each leaf at concentrations of 50 or 10 mg per liter and the second group was untreated to act as controls. The number of living eggs 9 days after the treatment was determined and the percent of egg mortality was determined and reported in Table IX.

Tetranychus urticae = experiment: Acaricidal activity, adulticide test on infested bean leaves; conditions: read-out: % Mortality (adults); for mortality at 10 µg/mL: 10 mg/liter
Procedure: Bean leaves infested with 25 acarids per leaf and coated with glue about their edge were divided into 2 groups. The first group was sprayed with 2.5 ml of an aqueous solution of the test compound A for each leaf at concentrations of 50, 10 and 1 mg/liter. The second control group was untreated and the number of acarids living 48 hours after the spraying was determined to determine the percent of mortality.

[6] = tested on: Tetranychus urticae larvae; experiment: Acaricidal activity, larvicide test on bean leaves; conditions: 216 h, 9 days after treatment
Procedure: as §4
This test was similar to the ovicide test but the readings were effected 9 days after the treatment to allow time for the insects to evolve.

With `CCOC(=O)c1csc(OP(=S)(OCC)OCC)n1` [Compound A, 4-ethoxycarbonyl-2-(diethoxythiophosphoryloxy)-thiazole] the “insecticidal activity” value [1] was “good insecticidal activity”, the mortality at 0.01 mg ([1]; 24 h) was 100% and the mortality at 0.01 mg ([1]; 48 h) was 100%. For the same compound, the mortality at 0.001 mg ([2]; 24 hr) was 40%, the mortality at 0.001 mg ([2]; 48 hr) was 50% and the mortality at 0.01 mg ([2]; 24 hr) was 100%. For the same compound, the mortality at 0.01 mg ([2]; 48 hr) was 100%, the “insecticidal activity” value ([2]; in vivo) was “good insecticidal activity” and the mortality at 0.001 mg ([3]; 24 hr) was 90%. For the same compound, the mortality at 0.001 mg ([3]; 48 hr) was 90%, the mortality at 0.01 mg ([3]; 24 hr) was 100% and the mortality at 0.01 mg ([3]; 48 hr) was 100%. The “insecticidal activity” value ([3]; in vivo) was “good insecticidal activity”, the mortality at 0.001 mg ([4]; 24 hr) was 100% and the mortality at 0.001 mg ([4]; 48 hr) was 100%. For the same compound, the mortality at 0.01 mg ([4]; 24 hr) was 100%, the mortality at 0.01 mg ([4]; 48 hr) was 100% and the “insecticidal activity” value ([4]; in vivo) was “good insecticidal activity”. The mortality at 0.1 mg (Sitophilus granarius; 144 h, 6 days) was 10%, the mortality at 1 mg (Sitophilus granarius; 144 h, 6 days) was 100% and the mortality at 0.1 mg (Sitophilus granarius; 24 hr) was 6%. It also gave a mortality at 0.1 mg (Sitophilus granarius; 48 hr) of 6%, a mortality at 1 mg (Sitophilus granarius; 24 hr) of 100% and a mortality at 1 mg (Sitophilus granarius; 48 hr) of 100%. The Emax at 50 µg/mL (Drosophila melanogaster; 1 hour) was 0%, the Emax at 50 µg/mL (Drosophila melanogaster; 2 hours) was 0% and the Emax at 50 µg/mL (Drosophila melanogaster; 4 hours) was 0%. For the same compound, the Emax at 50 µg/mL (Drosophila melanogaster; 24 hours) was 32.8%, the Emax at 500 µg/mL (Drosophila melanogaster; 1 hour) was 0% and the Emax at 500 µg/mL (Drosophila melanogaster; 2 hours) was 0%. It also gave an Emax at 500 µg/mL (Drosophila melanogaster; 4 hours) of 0%, an Emax at 500 µg/mL (Drosophila melanogaster; 24 hours) of 100% and an Emax at 5000 µg/mL (Drosophila melanogaster; 1 hour) of 0%. It also gave an Emax at 5000 µg/mL (Drosophila melanogaster; 2 hours) of 0%, an Emax at 5000 µg/mL (Drosophila melanogaster; 4 hours) of 5.9% and an Emax at 5000 µg/mL (Drosophila melanogaster; 24 hours) of 100%. The “contact and vapor insecticidal activity” value (Drosophila melanogaster; in vivo) was “good contact and vapor insecticidal activity”, the mortality at 100 µg/mL (Ceratitis capitata; 2 h) was 61.2% and the mortality at 100 µg/mL (Ceratitis capitata; 24 h) was 38.8%. The mortality at 1000 µg/mL (Ceratitis capitata; 2 hours) was 91.7%, the mortality at 1000 µg/mL (Ceratitis capitata; 24 hours) was 97.9% and the “insecticidal activity” value (Ceratitis capitata; in vivo) was “good insecticidal activity”. The “% mortality” value (Blatella germanica; 625 mg/liter, 24 hr) was 10.0%, the “% mortality” value (Blatella germanica; 625 mg/liter, 48 hr) was 10.0% and the “% mortality” value (Blatella germanica; 625 mg/liter, 6 days) was 15.0%. For the same compound, the “% mortality” value (Blatella germanica; 1250 mg/liter, 24 hr) was 90.0%, the “% mortality” value (Blatella germanica; 1250 mg/liter, 48 hr) was 95.0% and the “% mortality” value (Blatella germanica; 1250 mg/liter, 6 days) was 100%. For the same compound, the “% mortality” value (Blatella germanica; 2500 mg/liter, 24 hr) was 95.0%, the “% mortality” value (Blatella germanica; 2500 mg/liter, 48 hr) was 95.0% and the “% mortality” value (Blatella germanica; 2500 mg/liter, 6 days) was 100%. For the same compound, the “insecticidal activity” value (Blatella germanica) was “good insecticidal activity”, the mortality at 100 µg/mL (Panagrellus silusae) was 86.5% and the mortality at 1000 µg/mL (Panagrellus silusae) was 100%. The “nematocidal activity” value (Panagrellus silusae) was “good nematocidal activity”, the mortality at 100 µg/mL [5] was 88.4% and the mortality at 1000 µg/mL [5] was 100%. For the same compound, the “nematocidal activity” value [5] was “good nematocidal activity”, the mortality at 10 µg/mL (Tetranychus urticae eggs; 10 mg/liter) was 93.3% and the mortality at 50 µg/mL (Tetranychus urticae eggs; 50 mg/liter) was 100%. For the same compound, the mortality at 10 µg/mL (Tetranychus urticae; 48 hours) was 100%, the mortality at 50 µg/mL (Tetranychus urticae; 50 mg/liter, 48 hours) was 100% and the mortality at 10 µg/mL ([6]; 10 mg/liter) was 100%. It also gave a mortality at 50 µg/mL ([6]; 50 mg/liter) of 100%.

In the case of `CCOC(=O)Cc1csc(OP(=S)(OCC)OCC)n1` [Compound B, 4-ethoxycarbonylmethyl-2-(diethoxythiophosphoryloxy)-thiazole], the “% mortality” value (Blatella germanica; 625 mg/liter, 24 hr) is reported as 100%, the “% mortality” value (Blatella germanica; 625 mg/liter, 48 hr) is reported as 100% and the “% mortality” value (Blatella germanica; 625 mg/liter, 6 days) is reported as 100%. The “% mortality” value (Blatella germanica; 1250 mg/liter, 24 hr) was 100%, the “% mortality” value (Blatella germanica; 1250 mg/liter, 48 hr) was 100% and the “% mortality” value (Blatella germanica; 1250 mg/liter, 6 days) was 100%. For the same compound, the “% mortality” value (Blatella germanica; 312,5 mg/liter, 24 hr) was 90%, the “% mortality” value (Blatella germanica; 312,5 mg/liter, 48 hr) was 90% and the “% mortality” value (Blatella germanica; 312,5 mg/liter, 6 days) was 90%. For the same compound, the “insecticidal activity” value (Blatella germanica) was “good insecticidal activity”, the mortality at 100 µg/mL (Panagrellus silusae) was 100% and the mortality at 1000 µg/mL (Panagrellus silusae) was 100%. For the same compound, the “nematocidal activity” value (Panagrellus silusae) was “good nematocidal activity”, the mortality at 100 µg/mL [5] was 55.7% and the mortality at 1000 µg/mL [5] was 100%. For the same compound, the “nematocidal activity” value [5] was “good nematocidal activity”, the mortality at 1 µg/mL (Tetranychus urticae; 1 mg/liter, 48 hours) was 20% and the mortality at 10 µg/mL (Tetranychus urticae; 48 hours) was 96%. It also gave a mortality at 50 µg/mL (Tetranychus urticae; 48 h) of 100%.
